From PubChem BioAssay AID330 (DTP/NCI, 2004)
Values joined by “and” are separate entries in the source; they are usually repeats but may differ in a detail not shown here. Equal entries are not always repeated. Toxic doses and inconclusive results are not listed. Rule for the calls: active = survival T/C of 150% or more; inactive = T/C below 125% in these data.

System: P388 leukemia ip, CD2F1 mice, survival T/C
Assay: NCI In Vivo Anticancer Drug Screen. Data for tumor model P388 Leukemia (intraperitoneal) in CD2F1 (CDF1) mice
Conditions: endpoint: median survival time, higher = longer survival
Method in brief: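 Mice carrying the transplanted tumor received test compound or vehicle. Survival was recorded in each group, and the value is the treated-group measurement divided by that of the vehicle-treated control group.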

[1] = dose: 60.0 mg/kg/injection, schedule: Q01DX005 (ip), vehicle: saline with Tween-80
[2] = dose: 120.0 mg/kg/injection, schedule: Q01DX005 (ip), vehicle: saline with Tween-80
[3] = dose: 240.0 mg/kg/injection, schedule: Q01DX005 (ip), vehicle: saline with Tween-80
[4] = dose: 100.0 mg/kg/injection, schedule: Q04DX002 (ip), vehicle: Klucel (hydroxypropylcellulose) (HPC)
[5] = dose: 200.0 mg/kg/injection, schedule: Q04DX002 (ip), vehicle: Klucel (hydroxypropylcellulose) (HPC)
[6] = dose: 50.0 mg/kg/injection, schedule: Q01DX005 (ip), vehicle: Klucel (hydroxypropylcellulose) (HPC)
[7] = dose: 100.0 mg/kg/injection, schedule: Q01DX005 (ip), vehicle: Klucel (hydroxypropylcellulose) (HPC)
[8] = dose: 50.0 mg/kg/injection, schedule: Q01DX009 (ip), vehicle: saline with Tween-80
[9] = dose: 50.0 mg/kg/injection, schedule: Q01DX009 (ip), vehicle: saline
[10] = dose: 100.0 mg/kg/injection, schedule: Q01DX009 (ip), vehicle: saline with Tween-80
[11] = dose: 100.0 mg/kg/injection, schedule: Q01DX009 (ip), vehicle: saline
[12] = dose: 200.0 mg/kg/injection, schedule: Q01DX009 (ip), vehicle: saline with Tween-80
[13] = dose: 200.0 mg/kg/injection, schedule: Q01DX009 (ip), vehicle: saline
[14] = dose: 400.0 mg/kg/injection, schedule: Q01DX009 (ip), vehicle: saline with Tween-80
[15] = dose: 100.0 mg/kg/injection, schedule: Q04DX003 (ip), vehicle: saline with Tween-80
[16] = dose: 200.0 mg/kg/injection, schedule: Q04DX003 (ip), vehicle: saline with Tween-80
[17] = dose: 50.0 mg/kg/injection, schedule: Q01DX005 (ip), vehicle: saline with Tween-80
[18] = dose: 100.0 mg/kg/injection, schedule: Q01DX005 (ip), vehicle: saline with Tween-80
[19] = dose: 200.0 mg/kg/injection, schedule: Q01DX005 (ip), vehicle: saline with Tween-80
[20] = dose: 15.0 mg/kg/injection, schedule: Q01DX005 (ip), vehicle: saline with Tween-80
[21] = dose: 400.0 mg/kg/injection, schedule: Q01DX001 (ip), vehicle: Klucel (hydroxypropylcellulose) (HPC)

Measured: T/C

c1ccc2c3[n+](ccc2c1)CCC[n+]1ccc2ccccc2c1-3
inactive: dose: 3.12 mg/kg/injection, schedule: Q01DX001 (ip), vehicle: saline 106 % of control | dose: 6.25 mg/kg/injection, schedule: Q01DX001 (ip), vehicle: saline 106 % of control | dose: 12.5 mg/kg/injection, schedule: Q01DX001 (ip), vehicle: saline 92 % of control

O=C1c2ccccc2-c2c(Br)cc(Br)c(NC(=O)C(Cl)Cl)c21
inactive: [1] 96 % of control | [2] 96 % of control | [3] 92 % of control

CC(C)(C)c1ccc(C(=O)NNC(O)C(F)(F)F)cc1 (configuration not stated)
inactive: [4] 101 % of control | [5] 103 % of control

CN1CCCc2c1n(-c1ccccc1)c(=O)n(-c1ccccc1)c2=O
inactive: [6] 100 % of control | [7] 101 % of control | dose: 200.0 mg/kg/injection, schedule: Q01DX005 (ip), vehicle: Klucel (hydroxypropylcellulose) (HPC) 99 % of control

c1ccc2c(c1)Nc1c(ccc3ccccc13)S2
inactive: [8] 95 % of control | [9] 102 % of control | [10] 112 % of control | [11] 98 % of control | [12] 113 % of control | [13] 109 % of control | [14] 113 % of control | dose: 400.0 mg/kg/injection, schedule: Q01DX009 (ip), vehicle: saline 100 % of control

CC1CC(O)C2C1CC1CCC2(C)OC1(C)C (configuration not stated)
inactive: [10] 105 % of control | [12] 105 % of control | [14] 100 % of control

CNC(=O)Nc1nncs1
inactive: [1] 106 % of control | [2] 104 % of control | [3] 106 % of control

CCOC(=O)C(O)(CC)CCC(C)C (configuration not stated)
inactive: dose: 50.0 mg/kg/injection, schedule: Q04DX003 (ip), vehicle: saline with Tween-80 100 % of control | [15] 100 % of control | [16] 100 % of control

CCOc1c(N=Nc2ccc(Cl)cc2)c(-c2ccccc2)nn1C(=S)S
inactive: [17] 97 % of control | [18] 99 % of control | [19] 91 % of control

CN(C)c1ccc(C(=O)C2CCCC(C)(C)C2)cc1 (configuration not stated)
inactive: dose: 100.0 mg/kg/injection, schedule: Q04DX003 (ip), vehicle: Klucel (hydroxypropylcellulose) (HPC) 98 % of control | dose: 200.0 mg/kg/injection, schedule: Q04DX003 (ip), vehicle: Klucel (hydroxypropylcellulose) (HPC) 99 % of control | dose: 400.0 mg/kg/injection, schedule: Q04DX003 (ip), vehicle: Klucel (hydroxypropylcellulose) (HPC) 91 % of control

O=c1[nH]c2ccccc2n1CCCN1CCC(n2c(=O)[nH]c3cc(Cl)ccc32)CC1
inactive: [9] 90 % of control | [11] 91 % of control | [13] 88 % of control

NC(CP(=O)(O)O)C(=O)O (configuration not stated)
inactive: dose: 50.0 mg/kg/injection, schedule: Q01DX005 (ip), vehicle: saline 106 % of control | dose: 100.0 mg/kg/injection, schedule: Q01DX005 (ip), vehicle: saline 101 % of control | dose: 200.0 mg/kg/injection, schedule: Q01DX005 (ip), vehicle: saline 91 % of control

COC(=O)c1ccc2c(c1)C(NC(C)=O)CCc1cc(OC)c(OC)c(OC)c1-2 (configuration not stated)
inactive: dose: 0.25 mg/kg/injection, schedule: Q01DX005 (ip), vehicle: saline 106 % of control | dose: 0.5 mg/kg/injection, schedule: Q01DX005 (ip), vehicle: saline 99 % of control | dose: 1.0 mg/kg/injection, schedule: Q01DX005 (ip), vehicle: saline 101 % of control | dose: 2.0 mg/kg/injection, schedule: Q01DX005 (ip), vehicle: saline 106 % of control | dose: 4.0 mg/kg/injection, schedule: Q01DX005 (ip), vehicle: saline 114 % of control

NCC(CC(=O)O)c1ccc(Cl)cc1 (configuration not stated)
inactive: [6] 94 % of control | [7] 93 % of control

C=C1CCC2(C)C(O)CC3(C)C(CCC4C5(C)CCC(OC(C)=O)C(C)(C)C5CCC43C)C2C1C (configuration not stated)
inactive: dose: 1.0 mg/kg/injection, schedule: Q01DX009 (ip), vehicle: alcohol 107 % of control | dose: 2.0 mg/kg/injection, schedule: Q01DX009 (ip), vehicle: alcohol 105 % of control | dose: 4.0 mg/kg/injection, schedule: Q01DX009 (ip), vehicle: alcohol 115 % of control

COc1ccc2c(c1)CCC1(C)CC(=O)C(Br)=C21 (configuration not stated)
inactive: dose: 6.25 mg/kg/injection, schedule: Q01DX009 (ip), vehicle: Klucel (hydroxypropylcellulose) (HPC) 109 % of control and 112 % of control and 114 % of control | dose: 12.5 mg/kg/injection, schedule: Q01DX009 (ip), vehicle: Klucel (hydroxypropylcellulose) (HPC) 100 % of control and 107 % of control and 114 % of control | dose: 25.0 mg/kg/injection, schedule: Q01DX009 (ip), vehicle: Klucel (hydroxypropylcellulose) (HPC) 102 % of control and 107 % of control | dose: 50.0 mg/kg/injection, schedule: Q01DX009 (ip), vehicle: Klucel (hydroxypropylcellulose) (HPC) 106 % of control

CCOC(=O)C(C)NC(=O)OCc1ccccc1 (configuration not stated)
inactive: [1] 101 % of control | [2] 112 % of control | [3] 116 % of control

Cc1nnc2c([N+](=O)[O-])c(N)c(Cl)nn12
inactive: dose: 7.5 mg/kg/injection, schedule: Q01DX005 (ip), vehicle: saline with Tween-80 118 % of control | [20] 113 % of control

COc1ccc(C(C)c2cc3c(cc2OC(C)=O)OCO3)cc1 (configuration not stated)
inactive: [17] 100 % of control | [18] 87 % of control | [19] 93 % of control

CC(C)(C)SC(=O)CCl
inactive: [15] 116 % of control | [16] 89 % of control

COc1ccc(/C=N/NC(=O)c2ccncc2)cc1F
inactive: [20] 100 % of control | dose: 30.0 mg/kg/injection, schedule: Q01DX005 (ip), vehicle: saline with Tween-80 99 % of control | [1] 101 % of control and 88 % of control | [2] 88 % of control | [3] 95 % of control

COC(=O)/C=C\C(=O)O
inactive: dose: 50.0 mg/kg/injection, schedule: Q04DX003 (ip), vehicle: saline 100 % of control | dose: 100.0 mg/kg/injection, schedule: Q04DX003 (ip), vehicle: saline 110 % of control | dose: 200.0 mg/kg/injection, schedule: Q04DX003 (ip), vehicle: saline 120 % of control

Cc1cc(C2(c3cc(C)c(O)c(Br)c3)OS(=O)(=O)c3ccccc32)cc(Br)c1O
inactive: [1] 99 % of control | [2] 102 % of control | [3] 90 % of control

CC(=O)c1c(O)c(C)c(C)c2c1OC(=O)C2C (configuration not stated)
inactive: dose: 3.12 mg/kg/injection, schedule: Q01DX009 (ip), vehicle: saline with Tween-80 109 % of control | dose: 6.25 mg/kg/injection, schedule: Q01DX009 (ip), vehicle: saline with Tween-80 116 % of control | dose: 12.5 mg/kg/injection, schedule: Q01DX009 (ip), vehicle: saline with Tween-80 108 % of control

O=C(c1ccc(C(F)(F)F)cc1)N1C2C3C=CC(C3)C2N1C(=O)c1ccc(C(F)(F)F)cc1 (configuration not stated)
inactive: dose: 50.0 mg/kg/injection, schedule: Q04DX002 (ip), vehicle: Klucel (hydroxypropylcellulose) (HPC) 102 % of control | [4] 106 % of control | [5] 102 % of control

CC1COC2(CCC(=CBr)CC2)O1 (configuration not stated)
inactive: dose: 100.0 mg/kg/injection, schedule: Q01DX001 (ip), vehicle: Klucel (hydroxypropylcellulose) (HPC) 96 % of control | dose: 200.0 mg/kg/injection, schedule: Q01DX001 (ip), vehicle: Klucel (hydroxypropylcellulose) (HPC) 107 % of control | [21] 100 % of control

S=C(N\N=C/C(/C=C/c1ccccc1)=N\NC(=S)Nc1ccc(Cl)cc1)Nc1ccc(Cl)cc1
inactive: [21] 88 % of control

CC(C)(C)C1CCC(O)(Cc2ccccc2)CC1 (configuration not stated)
inactive: [17] 101 % of control | [18] 91 % of control | [19] 99 % of control

CCCCCCCCCCCn1nnnc1N
inactive: [17] 102 % of control | [18] 93 % of control | [19] 96 % of control

CCOC(=O)C(C#N)C1(c2ccccc2)CCCCC1 (configuration not stated)
inactive: [8] 112 % of control | [10] 101 % of control | [12] 101 % of control

FC(F)(F)c1ccccc1N=Cc1cccs1
inactive: [9] 113 % of control | [11] 103 % of control | [13] 104 % of control
